# Assays:
# Rattus norvegicus [1] = experiment: Antiinflammatory activity in Wistar rat assessed as protection against carrageenan-induced paw edema at 100 mg/kg, po administered 1 hr before carrageenan challenge measured after 4 hrs relative to control; assay type: functional
# [2] = molecular target: T1, Prostaglandin G/H synthase 2 (Homo sapiens) (UniProt P35354); experiment: Inhibition of COX2 in human whole blood at 10 uM
# T1 sequence (whole entry): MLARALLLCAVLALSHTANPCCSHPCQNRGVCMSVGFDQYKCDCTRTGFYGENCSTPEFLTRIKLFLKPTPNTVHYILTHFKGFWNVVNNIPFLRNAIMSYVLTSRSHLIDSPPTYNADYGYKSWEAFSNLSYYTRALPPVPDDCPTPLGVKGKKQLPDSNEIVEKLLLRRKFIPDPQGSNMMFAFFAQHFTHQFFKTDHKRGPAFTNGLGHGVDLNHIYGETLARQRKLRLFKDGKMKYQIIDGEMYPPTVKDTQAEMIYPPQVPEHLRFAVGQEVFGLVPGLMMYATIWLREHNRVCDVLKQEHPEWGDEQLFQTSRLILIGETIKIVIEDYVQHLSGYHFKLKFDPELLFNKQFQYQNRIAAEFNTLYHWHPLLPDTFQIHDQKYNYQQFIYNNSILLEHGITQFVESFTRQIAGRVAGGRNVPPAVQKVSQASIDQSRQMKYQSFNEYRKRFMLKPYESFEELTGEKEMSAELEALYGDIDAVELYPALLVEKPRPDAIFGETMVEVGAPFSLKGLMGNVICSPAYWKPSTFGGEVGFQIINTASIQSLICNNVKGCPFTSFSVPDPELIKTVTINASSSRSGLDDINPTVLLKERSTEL
# Rattus norvegicus [3] = experiment: Analgesic activity in Wistar rat assessed as inhibition of acetic acid-induced writhing at 100 mg/kg, po administered 1 hr before acetic acid challenge measured after 30 mins relative to control; assay type: functional
# Rattus norvegicus [4] = experiment: Ulcerogenicity in fasted Wistar rat assessed as ulceration at 300 mg/kg, po administered every 2 hrs; assay type: toxicity, organism-based; parameters: dose 300 mg/kg, route oral; conditions: in vivo
Compound,Activity (Rattus norvegicus [1]),inhibition [2],inhibition in vivo at 100 mg/kg (Rattus norvegicus [3]),Activity (Rattus norvegicus [4])
N#CC1=NN(c2ccc(S(N)(=O)=O)cc2)C(c2ccc(Cl)cc2)C1 (racemic),49.67%,–,–,–
FC(F)(F)c1nc(C2=NN(c3ccccc3)C(c3ccc(Cl)cc3)C2)no1 (racemic),49.45%,6%,15.8%,Non-toxic
CSc1nnc(C2=NN(c3ccc(S(N)(=O)=O)cc3)C(c3ccc(Cl)cc3)C2)s1 (racemic),26.12%,–,–,–
Sc1nc(C2=NN(c3ccccc3)C(c3ccc(Cl)cc3)C2)no1 (stereo not given),40.51%,–,–,–
Cn1nnc(C2=NN(c3ccccc3)C(c3ccc(Cl)cc3)C2)n1 (racemic),34.31%,–,–,–
CCOC(=O)Cc1nnc(C2=NN(c3ccccc3)C(c3ccc(Cl)cc3)C2)o1 (racemic),-17.6%,–,–,–
CSc1nnc(C2=NN(c3ccccc3)C(c3ccc(Cl)cc3)C2)s1 (racemic),11.84%,–,–,–
CCOC(=O)Cc1nc(C2=NN(c3ccccc3)C(c3ccc(Cl)cc3)C2)no1 (racemic),30.94%,–,–,–
Nc1nnc(C2=NN(c3ccc(S(N)(=O)=O)cc3)C(c3ccc(Cl)cc3)C2)o1 (racemic),18.38%,–,–,–
NS(=O)(=O)c1ccc(N2N=C(c3nn[nH]n3)CC2c2ccc(Cl)cc2)cc1 (racemic),54.58%,7%,30.1%,Non-toxic
Cc1nc(C2=NN(c3ccccc3)C(c3ccc(Cl)cc3)C2)no1 (racemic),49.24%,4%,23.7%,Non-toxic
Oc1nc(C2=NN(c3ccccc3)C(c3ccc(Cl)cc3)C2)no1 (racemic),32.68%,–,–,–
Clc1ccc(C2CC(c3nn[nH]n3)=NN2c2ccccc2)cc1 (stereo not given),37.8%,–,–,–
Oc1nnc(C2=NN(c3ccccc3)C(c3ccc(Cl)cc3)C2)o1 (racemic),24.26%,–,–,–
O=C(O)Cc1nc(C2=NN(c3ccccc3)C(c3ccc(Cl)cc3)C2)no1 (racemic),7.08%,–,–,–
Cn1nnc(C2=NN(c3ccc(S(N)(=O)=O)cc3)C(c3ccc(Cl)cc3)C2)n1 (racemic),48.58%,11%,23.7%,Non-toxic

Compound,Activity (Rattus norvegicus [1]),inhibition [2],inhibition in vivo at 100 mg/kg (Rattus norvegicus [3]),Activity (Rattus norvegicus [4])
O=C(O)Cc1nnc(C2=NN(c3ccccc3)C(c3ccc(Cl)cc3)C2)o1 (racemic),7.46%,–,–,–
O=C([O-])Cc1ccccc1Nc1c(Cl)cccc1Cl.[Na+] [DICLOFENAC SODIUM],50.93%,–,76.6%,Toxic
NS(=O)(=O)c1ccc(N2N=C(c3nnc(O)o3)CC2c2ccc(Cl)cc2)cc1 (racemic),35.38%,–,–,–
Nc1nnc(C2=NN(c3ccccc3)C(c3ccc(Cl)cc3)C2)o1 (racemic),4.5%,–,–,–
FC(F)(F)c1nnc(C2=NN(c3ccccc3)C(c3ccc(Cl)cc3)C2)o1 (racemic),-46.9%,–,–,–
O=C(O)c1nc(C2=NN(c3ccccc3)C(c3ccc(Cl)cc3)C2)no1 (racemic),14.4%,–,–,–
NS(=O)(=O)c1ccc(N2N=C(c3noc(O)n3)CC2c2ccc(Cl)cc2)cc1 (racemic),46.18%,–,–,–
NS(=O)(=O)c1ccc(N2N=C(c3nnc(S)o3)CC2c2ccc(Cl)cc2)cc1 (racemic),36.76%,–,–,–
NS(=O)(=O)c1ccc(N2N=C(c3noc(S)n3)CC2c2ccc(Cl)cc2)cc1 (racemic),48.82%,–,–,–
CCOC(=O)c1nnc(C2=NN(c3ccccc3)C(c3ccc(Cl)cc3)C2)o1 (racemic),4.5%,–,–,–
CCOC(=O)c1nc(C2=NN(c3ccccc3)C(c3ccc(Cl)cc3)C2)no1 (racemic),20.35%,–,–,–
Sc1nnc(C2=NN(c3ccccc3)C(c3ccc(Cl)cc3)C2)o1 (racemic),32.74%,–,–,–
Cc1nnc(C2=NN(c3ccccc3)C(c3ccc(Cl)cc3)C2)o1 (racemic),16.45%,–,–,–
O=C(O)c1nnc(C2=NN(c3ccccc3)C(c3ccc(Cl)cc3)C2)o1 (racemic),-19.3%,–,–,–
N#CC1=NN(c2ccccc2)C(c2ccc(Cl)cc2)C1 (racemic),39.43%,–,–,–

# Reference: ChEMBL document CHEMBL1909631, “Synthesis and anti-inflammatory activity of some new 4,5-dihydro-1,5-diaryl-1H-pyrazole-3-substituted-heteroazole derivatives” (Bioorg Med Chem Lett, 2011)
